Values joined by “and” are separate entries in the source; they are usually repeats but may differ in a detail not shown here. Identical values can stand only once. Inconclusive results and toxic doses are left out. Cut-off read from the data, not from the text of the source: active = T/C of 150% or more; inactive = T/C below 125%.
System: L1210 leukemia ip in BDF1 mice, survival T/C
Test: NCI In Vivo Anticancer Drug Screen. Data for tumor model L1210 Leukemia (intraperitoneal) in B6D2F1 (BDF1) mice
Settings: endpoint: mean survival time, higher = longer survival
Summary of the method: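 In this screen, tumor-bearing mice given compound are compared to those given vehicle, and their survival values are reported as a treated-to-control quotient.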

[1] = dose: 100.0 mg/kg/injection, schedule: Q04DX003 (ip), vehicle: saline
[2] = dose: 200.0 mg/kg/injection, schedule: Q04DX003 (ip), vehicle: saline
[3] = dose: 400.0 mg/kg/injection, schedule: Q04DX003 (ip), vehicle: saline
[4] = dose: 6.25 mg/kg/injection, schedule: Q01DX009 (ip), vehicle: saline with Tween-80
[5] = dose: 12.5 mg/kg/injection, schedule: Q01DX009 (ip), vehicle: saline with Tween-80
[6] = dose: 100.0 mg/kg/injection, schedule: Q01DX001 (ip), vehicle: saline
[7] = dose: 200.0 mg/kg/injection, schedule: Q01DX001 (ip), vehicle: saline
[8] = dose: 400.0 mg/kg/injection, schedule: Q01DX001 (ip), vehicle: saline
[9] = dose: 100.0 mg/kg/injection, schedule: Q04DX003 (ip), vehicle: saline with Tween-80
[10] = dose: 200.0 mg/kg/injection, schedule: Q04DX003 (ip), vehicle: saline with Tween-80
[11] = dose: 400.0 mg/kg/injection, schedule: Q04DX003 (ip), vehicle: saline with Tween-80
[12] = dose: 100.0 mg/kg/injection, schedule: Q04DX003 (ip), vehicle: Klucel (hydroxypropylcellulose) (HPC)
[13] = dose: 200.0 mg/kg/injection, schedule: Q04DX003 (ip), vehicle: Klucel (hydroxypropylcellulose) (HPC)
[14] = dose: 400.0 mg/kg/injection, schedule: Q04DX003 (ip), vehicle: Klucel (hydroxypropylcellulose) (HPC)
[15] = dose: 50.0 mg/kg/injection, schedule: Q01DX009 (ip), vehicle: Klucel (hydroxypropylcellulose) (HPC)
[16] = dose: 100.0 mg/kg/injection, schedule: Q01DX009 (ip), vehicle: Klucel (hydroxypropylcellulose) (HPC)
[17] = dose: 50.0 mg/kg/injection, schedule: Q04DX003 (ip), vehicle: Klucel (hydroxypropylcellulose) (HPC)

Measured: T/C

CCCCCC(C)NC(=O)NCCCl (configuration not stated)
inactive: dose: 100.0 mg/kg/injection, schedule: Q04DX002 (ip), vehicle: Klucel (hydroxypropylcellulose) (HPC) 89 % of control | dose: 200.0 mg/kg/injection, schedule: Q04DX002 (ip), vehicle: Klucel (hydroxypropylcellulose) (HPC) 92 % of control | dose: 400.0 mg/kg/injection, schedule: Q04DX002 (ip), vehicle: Klucel (hydroxypropylcellulose) (HPC) 87 % of control

CCCCCCCCOC(=O)CCCc1ccc(N(CCCl)CCCl)cc1
inactive: dose: 100.0 mg/kg/injection, schedule: Q04DX002 (ip), vehicle: saline 104 % of control | dose: 200.0 mg/kg/injection, schedule: Q04DX002 (ip), vehicle: saline 108 % of control | dose: 400.0 mg/kg/injection, schedule: Q04DX002 (ip), vehicle: saline 111 % of control

CC1(CCC(=O)O)CCCCC1=O (configuration not stated)
inactive: [1] 96 % of control | [2] 96 % of control | [3] 112 % of control

Nc1ccn(C2OC(CO)C(OC3OC4COC(c5ccccc5)OC4C(O)C3O)C(O)C2O)c(=O)n1 (configuration not stated)
inactive: dose: 22.5 mg/kg/injection, schedule: Q01DX001 (ip), vehicle: carboxymethylcellulose (CMC) 105 % of control | dose: 45.0 mg/kg/injection, schedule: Q01DX001 (ip), vehicle: carboxymethylcellulose (CMC) 100 % of control | dose: 90.0 mg/kg/injection, schedule: Q01DX001 (ip), vehicle: carboxymethylcellulose (CMC) 116 % of control | dose: 180.0 mg/kg/injection, schedule: Q01DX001 (ip), vehicle: carboxymethylcellulose (CMC) 97 % of control

COC(=O)CC[S+](C)CCC(=O)OC
inactive: dose: 7.5 mg/kg/injection, schedule: Q04DX003 (ip), vehicle: saline 100 % of control | dose: 15.0 mg/kg/injection, schedule: Q04DX003 (ip), vehicle: saline 107 % of control | dose: 30.0 mg/kg/injection, schedule: Q04DX003 (ip), vehicle: saline 105 % of control

NC(=O)NN=C1CSSC1
inactive: dose: 1.56 mg/kg/injection, schedule: Q01DX009 (ip), vehicle: saline with Tween-80 101 % of control | dose: 3.12 mg/kg/injection, schedule: Q01DX009 (ip), vehicle: saline with Tween-80 99 % of control | [4] 94 % of control | dose: 6.25 mg/kg/injection, schedule: Q04DX003 (ip), vehicle: saline with Tween-80 97 % of control | [5] 98 % of control and 106 % of control | dose: 12.5 mg/kg/injection, schedule: Q04DX003 (ip), vehicle: saline with Tween-80 97 % of control

CC/C=C(\CCC)CCCC
inactive: dose: 100.0 mg/kg/injection, schedule: Q04DX002 (ip), vehicle: saline with Tween-80 94 % of control | dose: 200.0 mg/kg/injection, schedule: Q04DX002 (ip), vehicle: saline with Tween-80 97 % of control | dose: 400.0 mg/kg/injection, schedule: Q04DX002 (ip), vehicle: saline with Tween-80 94 % of control

CC(=O)C(C(C)=O)c1cc(NS(=O)(=O)N(C)C)ccc1NS(=O)(=O)N(C)C
inactive: dose: 75.0 mg/kg/injection, schedule: Q04DX003 (ip), vehicle: Klucel (hydroxypropylcellulose) (HPC) 89 % of control | dose: 150.0 mg/kg/injection, schedule: Q04DX003 (ip), vehicle: Klucel (hydroxypropylcellulose) (HPC) 108 % of control | dose: 300.0 mg/kg/injection, schedule: Q04DX003 (ip), vehicle: Klucel (hydroxypropylcellulose) (HPC) 96 % of control

CCCCCCCCCCCCc1c2ccccc2cc2ccccc12
inactive: [6] 97 % of control | [7] 98 % of control | [8] 92 % of control

Cc1ccc(S(=O)(=O)OCC2OCC(O)C(O)C2O)cc1 (configuration not stated)
inactive: [9] 86 % of control | [10] 86 % of control | [11] 86 % of control

CC(C)CCNc1ncnc2c1cnn2C
inactive: dose: 25.0 mg/kg/injection, schedule: Q04DX003 (ip), vehicle: saline 97 % of control | dose: 50.0 mg/kg/injection, schedule: Q04DX003 (ip), vehicle: saline 97 % of control | [1] 102 % of control

OCC1=CCN(CCc2c[nH]c3ccccc23)CC1
inactive: [9] 95 % of control | [10] 88 % of control | [11] 94 % of control

CC(C)=CCC/C(C)=C/CNC(=O)/C=C/C(=O)O
inactive: dose: 25.0 mg/kg/injection, schedule: Q01DX009 (ip), vehicle: saline with Tween-80 98 % of control | dose: 50.0 mg/kg/injection, schedule: Q01DX009 (ip), vehicle: saline with Tween-80 93 % of control | dose: 50.0 mg/kg/injection, schedule: Q04DX003 (ip), vehicle: saline with Tween-80 91 % of control | dose: 100.0 mg/kg/injection, schedule: Q01DX009 (ip), vehicle: saline with Tween-80 100 % of control and 90 % of control | [9] 94 % of control and 98 % of control | dose: 200.0 mg/kg/injection, schedule: Q01DX009 (ip), vehicle: saline with Tween-80 105 % of control | [10] 86 % of control | dose: 400.0 mg/kg/injection, schedule: Q01DX009 (ip), vehicle: saline with Tween-80 94 % of control | [11] 97 % of control

Cc1cc(Oc2nccnc2C)cc(C)c1N(C)C
inactive: [12] 101 % of control | [13] 94 % of control | [14] 94 % of control

O=C(Nc1ccccc1)Oc1ccc(OC(=O)Nc2ccccc2)c(Cl)c1
inactive: dose: 100.0 mg/kg/injection, schedule: Q04DX002 (ip), vehicle: saline + alcohol 92 % of control | dose: 200.0 mg/kg/injection, schedule: Q04DX002 (ip), vehicle: saline + alcohol 92 % of control

Clc1ccc(Cl)c(-c2csc(Nc3cccnc3)n2)c1
inactive: [1] 92 % of control | [2] 94 % of control | [3] 97 % of control

CN(C)N=C(c1ccccc1)c1ccccc1
inactive: [15] 86 % of control | [16] 97 % of control

COc1ccccc1C1CCCC1OS(C)(=O)=O (configuration not stated)
inactive: dose: 75.0 mg/kg/injection, schedule: Q04DX003 (ip), vehicle: saline 103 % of control | [6] 98 % of control | dose: 150.0 mg/kg/injection, schedule: Q04DX003 (ip), vehicle: saline 100 % of control | [7] 107 % of control | dose: 300.0 mg/kg/injection, schedule: Q04DX003 (ip), vehicle: saline 108 % of control | [8] 96 % of control

O=C(c1ccccc1)C(CBr)C(Br)c1ccccc1 (configuration not stated)
inactive: [16] 90 % of control | [12] 98 % of control | dose: 200.0 mg/kg/injection, schedule: Q01DX009 (ip), vehicle: Klucel (hydroxypropylcellulose) (HPC) 101 % of control | [13] 95 % of control | dose: 400.0 mg/kg/injection, schedule: Q01DX009 (ip), vehicle: Klucel (hydroxypropylcellulose) (HPC) 93 % of control | [14] 88 % of control

CN(C)/N=C1\C(=O)Nc2ccccc21
inactive: dose: 25.0 mg/kg/injection, schedule: Q01DX009 (ip), vehicle: Klucel (hydroxypropylcellulose) (HPC) 101 % of control | [15] 117 % of control | [17] 104 % of control | [16] 102 % of control and 103 % of control | [12] 106 % of control | [13] 97 % of control | [14] 103 % of control

Cc1onc(-c2ccccc2Cl)c1C(=O)NC(N)=S
inactive: dose: 100.0 mg/kg/injection, schedule: Q01DX009 (ip), vehicle: saline 103 % of control | dose: 200.0 mg/kg/injection, schedule: Q01DX009 (ip), vehicle: saline 101 % of control | dose: 400.0 mg/kg/injection, schedule: Q01DX009 (ip), vehicle: saline 104 % of control

O=C1NC(c2ccccc2)(c2ccccc2)C(=O)N1SC(Cl)(Cl)Cl
inactive: dose: 25.0 mg/kg/injection, schedule: Q04DX002 (ip), vehicle: Klucel (hydroxypropylcellulose) (HPC) 100 % of control | dose: 50.0 mg/kg/injection, schedule: Q04DX002 (ip), vehicle: Klucel (hydroxypropylcellulose) (HPC) 118 % of control

C(#CP(c1ccccc1)c1ccccc1)P(c1ccccc1)c1ccccc1
inactive: [17] 98 % of control | [12] 101 % of control | [13] 102 % of control

O=C(NCCCCC(NC(=O)c1ccccc1)C(=O)NCCCCCCNCCCCCCNC(=O)C(CCCCNC(=O)c1ccccc1)NC(=O)c1ccccc1)c1ccccc1 (configuration not stated)
inactive: dose: 10.0 mg/kg/injection, schedule: Q01DX Z (ip), vehicle: saline 96 % of control | dose: 30.0 mg/kg/injection, schedule: Q01DX Z (ip), vehicle: saline 102 % of control | dose: 100.0 mg/kg/injection, schedule: Q01DX Z (ip), vehicle: saline 100 % of control | dose: 300.0 mg/kg/injection, schedule: Q01DX Z (ip), vehicle: saline 100 % of control

Cc1ccc([NH-])cc1.Cc1ccc([NH-])cc1.[Cl][Pt+2][Cl]
inactive: [4] 101 % of control | [5] 95 % of control

Source: PubChem BioAssay AID248 (DTP/NCI, 2004)
